Assay results reported in patent US12357613B2, “Inhibitor for retinochoroidal disorders” (YAMAGUCHI UNIVERSITY, priority 2013, dated 2025).

How the values were obtained:
[1] = test system: murine retinal pigment epithelial cells; experiment: Test on inhibition of three-dimensional collagen gel atrophy in murine retinal pigment epithelial cell; type: cell-based, mouse; settings: 1 ng/ml TGF-B2; 0.01, 0.1 or 1 μM; gel diameter after 24 hours; FIG. 1
From the text: (Test on Inhibition of Three-Dimensional Collagen Gel Atrophy in Murine Retinal Pigment Epithelial Cell)
Murine retinal pigment epithelial cells were used to assess the inhibition effect of a tested compound on three-dimensional collagen gel atrophy in accordance with the method of Nishida et al (Investigative Ophthalmology & Visual Science 42: 1247-1253 (2001)). A subretinal sheet-like pigment epithelial cell comprising a retinal pigment epithelial cell from a mouse eyeball was collected and grown in primary culture. The cultured cell was detached and collected from a culture slide with 0.05% Trypsin-EDTA. After washing twice in a serum free medium (MEM: product number 11095; Gibco), a serum-free medium was added to make a cell suspension. Type I collagen (3 mg/ml: product number 637-00653; Nitta Gelatin Inc.), 10×MEM, reconstitution buffer (product number 635-00791; Nitta Gelatin Inc.), cell suspension (1.1×10^7 cells/ml in MEM), and water were mixed on ice at the volume ratio of 7:1:1:0.2:1.8. A culture dish coated with 1% BSA was inoculated with the mixture (0.5 ml), which was incubated for one hour at 37° C. to make a collagen gel. Then, 0.5 ml each of serum free media, to which 1 ng/ml of TGF-B2 (R&D) and 0, 0.01, 0.1, or 1 μM of the benzoic acid of the invention were added, was added onto collagen gels and incubated at 37° C. The diameter of gels was measured after 24 hours. […]

[2] = test system: murine subretinal scar model; experiment: Test on inhibition of murine subretinal scar formation; type: in vivo, mouse C57BL/6; settings: 7 days after injection
From the text: (Test on Inhibition of Murine Subretinal Scar Formation)
A murine subretinal scar model was produced to study whether the benzoic acid of the invention has an effect of inhibiting subretinal scar formation. A subretinal scar model in a mouse was produced by the method shown below in accordance with the method of Young-joon et al (Investigative Ophthalmology & Visual Science, 52, 6089-6095([…])).
(Production of Murine Subretinal Scar Model)
First, laser was irradiated (0.05 seconds, 200 mW, 532 nm) onto one location on the posterior pole of fundus of mouse C57BL/6 (purchased from SLC) to destroy the Bruch's membrane, which enabled infiltration of inflammatory cells from the choroid as well as creation of air bubbles subretinally.
A 33G needle was then inserted from pars plana. 0.5 μl of 4×10^7 ml thioglycollate elicited peritoneal macrophage and 1 μg, 5 μg, or 50 μg of the benzoic acid of the invention were subretinally injected. For the control, the benzoic acid of the invention was not injected (0 μg).
The subretinal area was observed and subretinal scar region was measure 7 days after injection of the macrophage and the benzoic acid of the invention described above.

CC1(C)CCC(C)(C)c2cc(Cn3cccn3)c(/C=C/c3ccc(C(=O)O)cc3)cc21 [benzoic acid of the invention, (E)-4-(2-{3-[(1H-pyrazole-1-yl)methyl]-5,5,8,8-tetramethyl-5,6,7,8-tetrahydronaphthalene-2-yl}vinyl)benzoic acid]
collagen atrophy due to TGF (diameter of collagen gel) [1]: can inhibit collagen atrophy due to TGF | subretinal scar region (fibrillation region) ([2]; 1 μg, 5 μg or 50 μg subretinally injected with macrophages, FIG. 2B): narrows as the amount of injection of the benzoic acid of the invention increases | formation of a subretinal scar (subretinal observation) ([2]; 50 μg subretinally injected with macrophages, in comparison to the control, FIG. 2A): formation of a scar was inhibited
